Starred links: 1 amine or outer side, 2 acyl side, 3 side chain; linkers in the order of their positions; H or OH if unused. Non-standard residues stand in square brackets, D forms with d. Residues, ends and D or L forms follow the SMILES beside them. ξ: configuration not given here. X2 = CN(C(C(=O)[*:2])C(O)c1ccccc1)[*:1]; X4 = CC(C(=O)O)C(C(=O)[*:2])N(C)[*:1]; ξNMeVal(3-OH) = CNC(C(=O)O)C(C)(C)O; X3 = C=C(C)C(C(=O)[*:2])N(C)[*:1]; X5 = CC(CO)C(C(=O)[*:2])N(C)[*:1]; NMeF = CN[CH](Cc1ccccc1)C(=O)O; X1 = CCC(C)C(O[*:1])C(=O)[*:2]; NMeV = CN[CH](C(=O)O)C(C)C; Hiv = CC(C)[CH](O)C(=O)O
Legend:
Experiment in all cases: MIC by agar dilution method, casitone agar
Type in all cases: cell-based
Conditions in all cases: Table 5
[1] = test system: Candida glabrata TIMM 1062
Description: (§1) The minimum inhibitory concentration (MIC) of each antibiotic against various fungi was determined by the agar dilution method using casitone agar medium (2.0% glucose, 0.9% bacto-casitone, 1.0% yeast extract, 0.1% KH2 PO4, 0.1% Na2 HPO4, 1.0% sodium citrate, 2.0% agar: concentrations are all by w/v).
(§2) Each minimum growth inhibitory concentration was determined after culturing at 27° C. for 4 days.

[2] = test system: Cryptococcus neoformans TIMM 0354
Description: as §1, §2

[3] = test system: Candida albicans TIMM 0136
Description: as §1, with “The antibiotics R106 of the present invention are active against various fungi including pathogenic fungi. The” for “The”

[4] = test system: Candida albicans TIMM 0171
Description: as §1, with “The antibiotics R106 of the present invention are active against various fungi including pathogenic fungi. The” for “The”

[5] = test system: Candida albicans TIMM 1768
Description: as §1, with “The antibiotics R106 of the present invention are active against various fungi including pathogenic fungi. The” for “The”

Candida kefyr TIMM 0301 = test system: Candida kefyr TIMM 0301
Description: as §1, with “The antibiotics R106 of the present invention are active against various fungi including pathogenic fungi. The” for “The”

| Structure (SMILES) | minimum inhibitory concentration (MIC) [1] | minimum inhibitory concentration (MIC) [2] | minimum inhibitory concentration (MIC) [3] | minimum inhibitory concentration (MIC) [4] | minimum inhibitory concentration (MIC) [5] | minimum inhibitory concentration (MIC) (Candida kefyr TIMM 0301) |
| --- | --- | --- | --- | --- | --- | --- |
| CCC(C)C1OC(=O)C(C(C)(C)O)N(C)C(=O)C(CC(C)C)NC(=O)C(C(C)C)N(C)C(=O)C(C(C)C)NC(=O)C2CCCN2C(=O)C(Cc2ccccc2)N(C)C(=O)C(Cc2ccccc2)NC(=O)C(C(C)C)N(C)C1=O (stereo not drawn) [Compound 3] (cyclo([ξNMeVal(3-OH)][X1][NMeV]F[NMeF]PV[NMeV]L); configuration not given here) | 0.20 | 1.56 | 0.10 | 0.10 | 1.56 | 0.20 |
| CCC(C)C1NC(=O)C2CCCN2C(=O)C(Cc2ccccc2)N(C)C(=O)C(Cc2ccccc2)NC(=O)C(C(C)C)N(C)C(=O)C(C(C)CC)OC(=O)C(C(C)CO)N(C)C(=O)C(CC(C)C)NC(=O)C(C(C)C)N(C)C1=O (stereo not drawn) [Compound 4] (cyclo([X5][X1][NMeV]F[NMeF]PI[NMeV]L); configuration not given here) | 1.56 | 25 | 0.20 | 0.10 | 0.39 | 0.78 |
| CCC(C)C1NC(=O)C2CCCN2C(=O)C(Cc2ccccc2)N(C)C(=O)C(Cc2ccccc2)NC(=O)C(C(C)C)N(C)C(=O)C(C(C)CC)OC(=O)C(C(C)(C)O)N(C)C(=O)C(CC(C)C)NC(=O)C(C(C)C)NC1=O (stereo not drawn) [Compound 6] (cyclo([ξNMeVal(3-OH)][X1][NMeV]F[NMeF]PIVL); configuration not given here) | 1.56 | 25 | 0.78 | 0.39 | 0.39 | 0.39 |
| CCC(C)C1NC(=O)C2CCCN2C(=O)C(Cc2ccccc2)N(C)C(=O)C(Cc2ccccc2)NC(=O)C(C(C)C)N(C)C(=O)C(C(C)CC)OC(=O)C(C(C)C)NC(=O)C(CC(C)C)NC(=O)C(C(C)C)N(C)C1=O (stereo not drawn) [Compound 8] (cyclo([X1][NMeV]F[NMeF]PI[NMeV]LV); configuration not given here) | > 25 | > 25 | 1.56 | 1.56 | 12.5 | > 25 |
| CCC(C)C1NC(=O)C2CCCN2C(=O)C(Cc2ccccc2)N(C)C(=O)C(Cc2ccccc2)NC(=O)C(C(C)C)N(C)C(=O)C(C(C)CC)OC(=O)C(C(C)C(=O)O)N(C)C(=O)C(CC(C)C)NC(=O)C(C(C)C)N(C)C1=O (stereo not drawn) [Compound 10] (cyclo([X4][X1][NMeV]F[NMeF]PI[NMeV]L); configuration not given here) | 3.12 | 25 | 0.78 | 0.78 | 12.5 | 3.12 |
| CCC(C)C1NC(=O)C2CCCN2C(=O)C(Cc2ccccc2)N(C)C(=O)C(Cc2ccccc2)NC(=O)C(C(C)C)N(C)C(=O)C(C(C)C)OC(=O)C(C(C)C)N(C)C(=O)C(CC(C)C)NC(=O)C(C(C)C)N(C)C1=O (stereo not drawn) [Compound 11] (cyclo(F[NMeF]PI[NMeV]L[NMeV][Hiv][NMeV]); configuration not given here) | > 25 | > 25 | 1.56 | 1.56 | 1.56 | 6.25 |

Other lines, results leading:

| minimum inhibitory concentration (MIC) [1] | minimum inhibitory concentration (MIC) [2] | minimum inhibitory concentration (MIC) [3] | minimum inhibitory concentration (MIC) [4] | minimum inhibitory concentration (MIC) [5] | minimum inhibitory concentration (MIC) (Candida kefyr TIMM 0301) | Structure (SMILES) |
| --- | --- | --- | --- | --- | --- | --- |
| > 25 | > 25 | 6.25 | 6.25 | 25 | 12.5 | CCC(C)C1OC(=O)C(C(C)C)N(C)C(=O)C(CC(C)C)NC(=O)C(C(C)C)N(C)C(=O)C(C(C)C)NC(=O)C2CCCN2C(=O)C(Cc2ccccc2)N(C)C(=O)C(Cc2ccccc2)NC(=O)C(C(C)C)N(C)C1=O (stereo not drawn) [Compound 12] (cyclo([X1][NMeV]F[NMeF]PV[NMeV]L[NMeV]); configuration not given here) |
| > 25 | > 25 | 6.25 | 12.5 | 12.5 | 25 | CCC(C)C1NC(=O)C2CCCN2C(=O)C(Cc2ccccc2)NC(=O)C(Cc2ccccc2)NC(=O)C(C(C)C)N(C)C(=O)C(C(C)CC)OC(=O)C(C(C)C)N(C)C(=O)C(CC(C)C)NC(=O)C(C(C)C)N(C)C1=O (stereo not drawn) [Compound 13] (cyclo([X1][NMeV]FFPI[NMeV]L[NMeV]); configuration not given here) |
| 12.5 | > 25 | 1.56 | 1.56 | 12.5 | 6.25 | C=C(C)C1C(=O)OC(C(C)CC)C(=O)N(C)C(C(C)C)C(=O)NC(Cc2ccccc2)C(=O)N(C)C(Cc2ccccc2)C(=O)N2CCCC2C(=O)NC(C(C)CC)C(=O)N(C)C(C(C)C)C(=O)NC(CC(C)C)C(=O)N1C (stereo not drawn) [Compound 14] (cyclo([X3][X1][NMeV]F[NMeF]PI[NMeV]L); configuration not given here) |
| > 25 | 25 | 12.5 | 25 | 25 | > 25 | CCC(C)C1NC(=O)C2CCCN2C(=O)C(Cc2ccccc2)N(C)C(=O)C(Cc2ccccc2)NC(=O)C(C(C)C)N(C)C(=O)C(C(C)CC)OC(=O)C(C(O)c2ccccc2)N(C)C(=O)C(CC(C)C)NC(=O)C(C(C)C)N(C)C1=O (stereo not drawn) [Compound 15] (cyclo([X2][X1][NMeV]F[NMeF]PI[NMeV]L); configuration not given here) |
| > 25 | > 25 | 3.12 | 1.56 | 25 | 3.12 | CCC(C)C1NC(=O)C2CCCN2C(=O)C(Cc2ccccc2)N(C)C(=O)C(Cc2ccccc2)NC(=O)C(C(C)C)N(C)C(=O)C(C(C)CC)OC(=O)C(C(C)C)N(C)C(=O)C(CC(C)C)NC(=O)C(C(C)C)NC1=O (stereo not drawn) [Compound 16] (cyclo([X1][NMeV]F[NMeF]PIVL[NMeV]); configuration not given here) |
| > 25 | > 25 | 12.5 | 25 | > 25 | > 25 | CCC(C)C1NC(=O)C2CCCN2C(=O)C(Cc2ccccc2)N(C)C(=O)C(Cc2ccccc2)NC(=O)C(C(C)C)N(C)C(=O)C(C(C)CC)OC(=O)C(Cc2ccccc2)N(C)C(=O)C(CC(C)C)NC(=O)C(C(C)C)N(C)C1=O (stereo not drawn) [Compound 17] (cyclo([X1][NMeV]F[NMeF]PI[NMeV]L[NMeF]); configuration not given here) |
